Each compound was assayed on circulating LH levels (assay: Castrated male rat model, circulating luteinizing hormone (LH) levels, oral dosing). Settings: castrated male SD rat, single oral dose less than or equal to 30 mg/kg, p<0.05.
Assay type: in vivo
Protocol: The effect of compounds of the invention to inhibit luteinizing hormone (LH) secretion is determined by the following biological studies. In humans and rodents, castration is well-precedented to permit heightened, persistent GnRH signaling and consequent elevation of circulating LH. Thus, a castrated rat model is used to provide a broad index for measurement of LH inhibition as a marker of test compound inhibition of the GnRH signaling pathway. Castrated adult male Sprague-Dawley (SD) rats (150-175 g) were purchased from Janvier (St Berthevin, France). All animals were housed 2 per cage in a temperature-controlled room (22±2° C.) and 50±5% relative humidity with a 12 hour/12 hour light/dark cycles (lights off at 6 h00 pm). The animals were allowed 3 weeks of postoperative recovery prior to study. Animals were handled on a daily basis. Standard diet and tap water were provided ad libitum. Animal cage litters were changed once a week. On the study day, animals were acclimated to the procedure room for a period of one hour prior to the initiation of the experiment. Compounds of the invention were formulated in 0.5% methyl cellulose. After basal sampling (TO) a single dose of compounds of the invention or vehicle was administrated orally to rats. […] Serum LH levels were determined using radioimmunoassay kit from RIAZEN—Rat LH, Zentech (Liège, Belgium). […]

Row | Structure (SMILES) | Suppression of circulating LH levels
1 | Cc1nsc(-c2nnc3n2CCN(C(=O)c2ccc(F)cc2)C3)n1 [Compound 1, (4-fluorophenyl)(3-(3-methyl-1,2,4-thiadiazol-5-yl)-5,6-dihydro-[1,2,4]triazolo[4,3-a]pyrazin-7(8H)-yl)methanone] | significantly suppressed circulating LH levels

What follows are compounds tested on plasma protein (assay: Determination of plasma protein binding (rapid equilibrium dialysis)). Settings: 4 hours at 37° C.
Assay type: in vitro ADME
Protocol: The determination of plasma protein binding (PPB) of a compound is enabled by equilibrium dialysis, an accepted and standard method for reliable estimation of the non-bound drug fraction in plasma. RED (Rapid Equilibrium Dialysis) device insert is made of two side-by-side chambers separated by an O-ring-sealed vertical cylinder of dialysis membrane (MWCO ˜8,000). […] After 4 hours incubation at 37° C. under shaking, an aliquot is removed from each chamber and analyzed by a LC-MS/MS procedure enables the determination of both free and bound drug.
The “free fraction” may be calculated as 100%−% rPPB (i.e. the complementary percentage of that disclosed in Table 4, corresponding to the drug concentration that is unbound and therefore available to engage biological target and elicit pharmacological activity).

Row | Structure (SMILES) | Exposure (% rPPB), bound drug fraction to the plasma protein [%]
2 | Cc1nsc(-c2nnc3n2CCN(C(=O)c2ccc(Cl)c(F)c2)C3)n1 [Compound 3, (4-chloro-3-fluorophenyl)(3-(3-methyl-1,2,4-thiadiazol-5-yl)-5,6-dihydro-[1,2,4]triazolo[4,3-a]pyrazin-7(8H)-yl)methanone] | 54
3 | Cc1nsc(-c2nnc3n2CCN(C(=O)c2ccc(F)c(F)c2F)C3)n1 [Compound 7, (3-(3-methyl-1,2,4-thiadiazol-5-yl)-5,6-dihydro-[1,2,4]triazolo[4,3-a]pyrazin-7(8H)-yl)(2,3,4-trifluorophenyl)methanone] | 25
4 | Cc1nsc(-c2nnc3n2CCN(C(=O)c2cc(F)c(F)c(F)c2)C3)n1 [Compound 6, (3-(3-methyl-1,2,4-thiadiazol-5-yl)-5,6-dihydro-[1,2,4]triazolo[4,3-a]pyrazin-7(8H)-yl)(3,4,5-trifluorophenyl)methanone] | 27

Other lines, results leading:

Row | Exposure (% rPPB), bound drug fraction to the plasma protein [%] | Structure (SMILES)
5 | 49 | Cc1nsc(-c2nnc3n2CCN(C(=O)c2ccc(Cl)cc2)C3)n1 [Compound 2, (4-chlorophenyl)(3-(3-methyl-1,2,4-thiadiazol-5-yl)-5,6-dihydro-[1,2,4]triazolo[4,3-a]pyrazin-7(8H)-yl)methanone]
6 | 28 | Cc1nsc(-c2nnc3n2CCN(C(=O)c2ccc(F)c(F)c2)C3)n1 [Compound 5, (3,4-difluorophenyl)(3-(3-methyl-1,2,4-thiadiazol-5-yl)-5,6-dihydro-[1,2,4]triazolo[4,3-a]pyrazin-7(8H)-yl)methanone]
7 | 52 | Cc1nsc(-c2nnc3n2CCN(C(=O)c2ccc(F)c(Cl)c2)C3)n1 [Compound 4, (3-chloro-4-fluorophenyl)(3-(3-methyl-1,2,4-thiadiazol-5-yl)-5,6-dihydro-[1,2,4]triazolo[4,3-a]pyrazin-7(8H)-yl)methanone]

From patent US10214533B2, “N-acyl-(3-substituted)-5,6,7,8-tetrahydro-[1,2,4]triazolo[4,3-a]pyrazines as selective NK-3 receptor antagonists, pharmaceutical composition, methods for use in NK-3 receptor-mediated disorders” (OGEDA SA, priority 2013, dated 2019)
